Reference: US20120122797A1, “PEPTIDIC COMPOUND AND USE OF SAME” (KEIO UNIVERSITY, priority 2009, published 2012)
In brackets after ≈: the same amount, converted by molar mass. Numbered stars: 1 amine (or outer) side, 2 acyl side, 3 side chain; on linkers, the order of the positions; unused ones are H or OH. Square brackets hold non-standard residues; d marks the D form. Peptide text beside a SMILES is read from it. * marks the point of attachment. ξ: configuration not given here. X1 = C[C@H]1C[C@@H](C2=N[C@](C)(C(=O)[*:2])CS2)N([*:1])C1; ξNMeTyr(3-Br) = CNC(Cc1ccc(O)c(Br)c1)C(=O)O; NMeF = CN[C@@H](Cc1ccccc1)C(=O)O; Piv = CC(C)(C)C(=O)*; X2 = CCC(=O)C1CCCN1*

Columns and labels:
Format in all cases: cell-based
phosphorylation of ERK = experiment: protein kinase inhibition: Western blot of phosphorylated ERK in PDGF-stimulated NRK cells
Method: (§1) NRK cells were seeded in a 96-well plate, and cultured for 3 days. A sample solution was added thereto and treated for 3 hours, followed by PDGF stimulation. Electrophoretic samples were prepared to conduct Western blot using antibodies against phosphorylated signal transduction molecules (AKT, ERK, PKD, PLCγ1, and S6 ribosomal protein) and phosphotyrosine. The effect on the intracellular signal transduction from a PDGF receptor was evaluated. […] The eIF4E, 4E-BP-1, and histone H3 bands confirmed that equal amounts of proteins subjected to electrophoresis.
(§2) Bisebromoamide (1) was added in such a manner that the final concentration became 0.01, 0.1, 1, and 10 μM, in order to determine the presence or absence of inhibition, and the inhibition pattern thereof. The effective inhibitory concentration against each signal transduction molecule activity was investigated.

[1] = test system: phosphorylation of PKD/PKC; experiment: protein kinase inhibition: Western blot of phosphorylated PKD/PKC in PDGF-stimulated NRK cells; settings: treated 3 hours, PDGF stimulation, 10, 1 and 0.1 μM
Method: as §1, §2

[2] = test system: 39 types of human cancer cells; experiment: growth inhibitory activity screening using 39 types of human cancer cells (sulforhodamine B colorimetric assay); settings: 48 h, 39 human cancer cell lines, cultured for 2 days, read-out: average GI50 value across all of the cell lines tested
Method: Bisebromoamide (1) is a strong cytotoxic substance containing a high degree of D-amino acids and unusual amino acids. In particular, compounds having a 4-Me-Pro, N-Me-3-bromo-Tyr, and N-pivalamide moiety linking to 4-methylthiazoline are very rare, and the 2-Opp unit is unprecedented in natural products. Bisebromoamide (1) was subjected to screening using 39 types of human cancer cells. […] The average GI50 value across all of the cell lines tested was 40 nM.
Cancer cells were seeded in a 96-well plate. A sample solution was added thereto on the following day, and cultured for 2 days. Cell growth was evaluated by sulforhodamine B colorimetric assay. The 39 total cancer cell lines that were tested included 7 lung cancer (Lu) lines, 6 stomach cancer (St) lines, 5 colon cancer (Co) lines, 6 brain neoplasm (CNS) lines, 5 breast cancer (Br) lines, 2 renal cancer (Re) lines, 2 prostatic cancer (xPg) lines, and 1 melanoma (Me) line. The effective concentration deviation of each cancer cell stock from the mean effective drug concentration of the 39 cancer cell lines measured was calculated and expressed as the fingerprint.

phosphorylation of AKT = experiment: protein kinase inhibition: Western blot of phosphorylated AKT in PDGF-stimulated NRK cells; settings: treated 3 hours, PDGF stimulation, 10, 1 and 0.1 μM
Method: as §1, §2

HeLa S3 cell = experiment: growth inhibitory activity against HeLa S3 cell; settings: Homo sapiens
Source text: The present inventors conducted research on the derivatives of the compound to complete the present invention.
The cyanobacterium Lyngbya sp. collected in Okinawa Prefecture was extracted with MeOH, and partitioned between H2O and AcOEt. The resulting AcOEt layer was further partitioned between 90% MeOH and n-hexane. The 90% MeOH layer thus obtained was separated and purified with various chromatographies using the growth inhibitory activity against tumor cells as an index. As a result, Bisebromoamide (1), which is a novel peptide, was isolated.
The planar structure of the compound was primarily determined by various two-dimensional NMR spectral analyses. […] Subsequently, in order to determine the absolute configuration of Bisebromoamide (1) including eight chiral centers, acid hydrolysis was conducted using 9 M HCl. The resulting acid hydrolysate was fractionated by HPLC, obtaining fractions of Leu, N-Me-Tyr, 4-Me-Pro, N-Me-Phe, Opp, and that of a mixture of Ala and 2-methylcystine. […] Furthermore, 4-Me-Pro, Opp, Ala, and 2-methylcystine were subjected to derivatization using Marfey's reagent, and then analyzed by reversed phase HPLC. […] However, it also turned out that the Opp and 4-Me-Pro completely epimerized at a-position during the acid hydrolysis. Therefore, we reduced the ketone of Opp using NaBH4 before conducting the acid hydrolysis. […]

[3] = test system: phosphorylation of S6 ribosomal protein (S6R); experiment: protein kinase inhibition: Western blot of phosphorylated S6 ribosomal protein in PDGF-stimulated NRK cells; settings: treated 3 hours, PDGF stimulation, 10, 1 and 0.1 μM
Method: as §1, §2

phosphorylation of PLCγ1 = experiment: protein kinase inhibition: Western blot of phosphorylated PLCγ1 in PDGF-stimulated NRK cells; settings: treated 3 hours, PDGF stimulation, 10, 1 and 0.1 μM
Method: as §1, §2

cancer cell growth = experiment: inhibitory activity of derivatives against cancer cell growth
Source text: The alcohol and hydrazone were examined for their inhibitory activities against cancer cell growth and phosphorylation of ERK.

Row | Structure (SMILES) | inhibition of phosphorylation of ERK (phosphorylation of ERK; NRK cells, treated 3 hours, PDGF stimulation, 10, 1 and 0.1 μM) | effect on phosphorylation of PKD/PKC [1] | GI50 [2] [nM] | effect on phosphorylation of AKT (phosphorylation of AKT) | IC50 (HeLa S3 cell) [µg/mL] | effect on phosphorylation of S6 ribosomal protein (S6R) [3] | effect on phosphorylation of PLCγ1 (phosphorylation of PLCγ1) | inhibitory activity against phosphorylation of ERK, compared with Bisebromoamide (1) (phosphorylation of ERK) | inhibitory activity against cancer cell growth, compared with Bisebromoamide (1) (cancer cell growth)
1 | CCC(=O)C1CCCN1C(=O)[C@H](Cc1ccccc1)N(C)C(=O)[C@@H](CC(C)C)NC(=O)[C@]1(C)CSC([C@@H]2C[C@H](C)CN2C(=O)C(Cc2ccc(O)c(Br)c2)N(C)C(=O)[C@H](C)NC(=O)C(C)(C)C)=N1 (stereo partly drawn) [Bisebromoamide (1), Bisebromoamide] (Piv-A[ξNMeTyr(3-Br)][X1][dL][NMeF]-X2) | selectively inhibited | no effect | 40 | no effect | 0.04 (≈ 0.0391 µM) | no effect | no effect |  | 
2 | CCO [alcohol] |  |  |  |  |  |  |  | Results similar to those for Bisebromoamide (1) | Results similar to those for Bisebromoamide (1)
